Assay results published in patent US7695930B2, “Method for the detection, identification and/or quantification of microoganisms with peptidase activity using phenoxazinone derivatives as enzyme substrates” (Biomerieux, priority 2003, dated 2010).

Columns and labels:
Assay in all cases: Alanyl-peptidase detection on agar medium (Example 13)
Type in all cases: cell-based
Conditions in all cases: 25 mg/l
Serratia marcescens = test system: Serratia marcescens
Method: (§1) The detection media were prepared by mixing 3.6 g of biogelytone (bioMérieux), 2.16 g of meat extract (bioMérieux), 1.26 g of malt extract (bioMérieux), 5.76 g of NaCl (Merck) and 10.8 g of agar (bioMérieux).
(§2) 720 ml of osmosed water were added to the powder, and the mixture was then melted in a waterbath at […]. The product was separated into two flasks, each of 360 ml. Autoclaving was carried out at 121° C. for 15 min and the product was cooled to […]. in a waterbath.
(§3) L-Alanyl-7-amino-4-methylcoumarin (Ala-AMC, Bachem) was then added to the first flask as a control, at the final concentration of 50 mg/l, and L-alanyl-9-aminobenzo[a]phenoxazin-5-one (Ala-ABP, substrate of the invention obtained in Example 2, in which the amino acid is L-alanine), was then added to the second flask at the final concentration of 25 mg/l.
(§4) The size of the colonies, their coloration and also the intensity of this coloration were noted.

Enterococcus faecium = test system: Enterococcus faecium
Method: as §1, §2, §3, §4

Staphylococcus aureus = test system: Staphylococcus aureus
Method: as §1, §2, §3, §4

Enterococcus faecalis = test system: Enterococcus faecalis
Method: as §1, §2, §3, §4

Escherichia coli = test system: Escherichia coli
Method: as §1, §2, §3, §4

[1] = test system: Staphylococcus epidermidis
Method: as §1, §2, §3, §4

Edwardsiella tarda = test system: Edwardsiella tarda
Method: as §1, §2, §3, §4

Klebsiella pneumoniae = test system: Klebsiella pneumoniae
Method: as §1, §2, §3, §4

[2] = test system: Staphylococcus saprophyticus
Method: as §1, §2, §3, §4

[3] = test system: Corynebacterium Pseudodiphteriticum
Method: as §1, §2, §3, §4

Pseudomonas aeruginosa = test system: Pseudomonas aeruginosa; as to color of the colony: key: B corresponds to fluorescent blue; R corresponds to pink
Method: as §1, §2, §3, §4

Candida albicans = test system: Candida albicans
Method: as §1, §2, §3, §4

Streptococcus pyogenes = test system: Streptococcus pyogenes
Method: as §1, §2, §3, §4

Saccharomyces cerevisiae = test system: Saccharomyces cerevisiae
Method: as §1, §2, §3, §4

Candida glabrata = test system: Candida glabrata
Method: as §1, §2, §3, §4

Salmonella typhimurium = test system: Salmonella typhimurium
Method: as §1, §2, §3, §4

Proteus mirabilis = test system: Proteus mirabilis
Method: as §1, §2, §3, §4

Enterobacter cloacae = test system: Enterobacter cloacae
Method: as §1, §2, §3, §4

Bacillus subtilis = test system: Bacillus subtilis
Method: as §1, §2, §3, §4

Acinetobacter baumanii = test system: Acinetobacter baumanii
Method: as §1, §2, §3, §4

Streptococcus agalactiae = test system: Streptococcus agalactiae
Method: as §1, §2, §3, §4

Serratia liquefaciens = test system: Serratia liquefaciens
Method: as §1, §2, §3, §4

Candida krusei = test system: Candida krusei
Method: as §1, §2, §3, §4

Hafnia alvei = test system: Hafnia alvei
Method: as §1, §2, §3, §4

Listeria innocua = test system: Listeria innocua
Method: as §1, §2, §3, §4

L-alanyl-9-aminobenzo[a]phenoxazin-5-one [Ala-ABP]
color of the colony (Serratia marcescens; 24 h): R | growth diameter (Serratia marcescens; 24 h): 0.5 mm | intensity of coloration, scale 0 to 4 (Serratia marcescens; 24 h): 2 | color of the colony (Serratia marcescens; 48 h): R | growth diameter (Serratia marcescens; 48 h): 1 mm | intensity of coloration, scale 0 to 4 (Serratia marcescens; 48 h): 3 | growth diameter (Enterococcus faecium; 24 h): 0.2 mm | growth diameter (Enterococcus faecium; 48 h): 0.3 mm | growth diameter (Staphylococcus aureus; 24 h): 0.1 mm | growth diameter (Staphylococcus aureus; 48 h): 0.3 mm | growth diameter (Enterococcus faecalis; 24 h): 0.3 mm | growth diameter (Enterococcus faecalis; 48 h): 0.3 mm | color of the colony (Escherichia coli; 24 h): R | growth diameter (Escherichia coli; 24 h): 1.7 mm | intensity of coloration, scale 0 to 4 (Escherichia coli; 24 h): 1 | color of the colony (Escherichia coli; 48 h): R | growth diameter (Escherichia coli; 48 h): 1.8 mm | intensity of coloration, scale 0 to 4 (Escherichia coli; 48 h): 1 | growth diameter ([1]; 24 h): 0.1 mm | growth diameter ([1]; 48 h): 0.1 mm | color of the colony (Edwardsiella tarda; 24 h): R | growth diameter (Edwardsiella tarda; 24 h): 0.5 mm | intensity of coloration, scale 0 to 4 (Edwardsiella tarda; 24 h): 1 | color of the colony (Edwardsiella tarda; 48 h): R | growth diameter (Edwardsiella tarda; 48 h): 0.7 mm | intensity of coloration, scale 0 to 4 (Edwardsiella tarda; 48 h): 3 | color of the colony (Klebsiella pneumoniae; 24 h): R | growth diameter (Klebsiella pneumoniae; 24 h): 1 mm | intensity of coloration, scale 0 to 4 (Klebsiella pneumoniae; 24 h): 3 | color of the colony (Klebsiella pneumoniae; 48 h): R | growth diameter (Klebsiella pneumoniae; 48 h): 1.5 mm | intensity of coloration, scale 0 to 4 (Klebsiella pneumoniae; 48 h): 3 | growth diameter ([2]; 24 h): 0.1 mm | growth diameter ([2]; 48 h): 0.3 mm | growth diameter ([3]; 24 h): 0 mm | growth diameter ([3]; 48 h): 0 mm | color of the colony (Pseudomonas aeruginosa; 24 h): R | growth diameter (Pseudomonas aeruginosa; 24 h): 0.3 mm | intensity of coloration, scale 0 to 4 (Pseudomonas aeruginosa; 24 h): 1.7 | color of the colony (Pseudomonas aeruginosa; 48 h): R | growth diameter (Pseudomonas aeruginosa; 48 h): 0.5 mm | intensity of coloration, scale 0 to 4 (Pseudomonas aeruginosa; 48 h): 3 | growth diameter (Candida albicans; 24 h): 0.3 mm | color of the colony (Candida albicans; 48 h): R | growth diameter (Candida albicans; 48 h): 0.5 mm | intensity of coloration, scale 0 to 4 (Candida albicans; 48 h): 2 | growth diameter (Streptococcus pyogenes; 24 h): 0.1 mm | growth diameter (Streptococcus pyogenes; 48 h): 0.2 mm | growth diameter (Saccharomyces cerevisiae; 24 h): 0 mm | growth diameter (Saccharomyces cerevisiae; 48 h): 0.2 mm | growth diameter (Candida glabrata; 24 h): 0.1 mm | growth diameter (Candida glabrata; 48 h): 0.3 mm | color of the colony (Salmonella typhimurium; 24 h): R | growth diameter (Salmonella typhimurium; 24 h): 1 mm | intensity of coloration, scale 0 to 4 (Salmonella typhimurium; 24 h): 0.5 | color of the colony (Salmonella typhimurium; 48 h): R | growth diameter (Salmonella typhimurium; 48 h): 1.5 mm | intensity of coloration, scale 0 to 4 (Salmonella typhimurium; 48 h): 1 | color of the colony (Proteus mirabilis; 24 h): R | growth diameter (Proteus mirabilis; 24 h): 1.7 mm | intensity of coloration, scale 0 to 4 (Proteus mirabilis; 24 h): 0.5 | color of the colony (Proteus mirabilis; 48 h): R | growth diameter (Proteus mirabilis; 48 h): 1.7 mm | intensity of coloration, scale 0 to 4 (Proteus mirabilis; 48 h): 1.5 | color of the colony (Enterobacter cloacae; 24 h): R | growth diameter (Enterobacter cloacae; 24 h): 0.7 mm | intensity of coloration, scale 0 to 4 (Enterobacter cloacae; 24 h): 1.5 | color of the colony (Enterobacter cloacae; 48 h): R | growth diameter (Enterobacter cloacae; 48 h): 0.7 mm | intensity of coloration, scale 0 to 4 (Enterobacter cloacae; 48 h): 2 | growth diameter (Bacillus subtilis; 24 h): 0.1 mm | growth diameter (Bacillus subtilis; 48 h): 0.5 mm | color of the colony (Acinetobacter baumanii; 24 h): R | growth diameter (Acinetobacter baumanii; 24 h): 1.7 mm | intensity of coloration, scale 0 to 4 (Acinetobacter baumanii; 24 h): 3 | color of the colony (Acinetobacter baumanii; 48 h): R | growth diameter (Acinetobacter baumanii; 48 h): 1.7 mm | intensity of coloration, scale 0 to 4 (Acinetobacter baumanii; 48 h): 3 | growth diameter (Streptococcus agalactiae; 24 h): 0.1 mm | growth diameter (Streptococcus agalactiae; 48 h): 0.2 mm | color of the colony (Serratia liquefaciens; 24 h): R | growth diameter (Serratia liquefaciens; 24 h): 0.7 mm | intensity of coloration, scale 0 to 4 (Serratia liquefaciens; 24 h): 3 | color of the colony (Serratia liquefaciens; 48 h): R | growth diameter (Serratia liquefaciens; 48 h): 1.3 mm | intensity of coloration, scale 0 to 4 (Serratia liquefaciens; 48 h): 3 | growth diameter (Candida krusei; 24 h): 0.5 mm | growth diameter (Candida krusei; 48 h): 1 mm | color of the colony (Hafnia alvei; 24 h): R | growth diameter (Hafnia alvei; 24 h): 0.5 mm | intensity of coloration, scale 0 to 4 (Hafnia alvei; 24 h): 0.5 | color of the colony (Hafnia alvei; 48 h): R | growth diameter (Hafnia alvei; 48 h): 0.5 mm | intensity of coloration, scale 0 to 4 (Hafnia alvei; 48 h): 1.5 | growth diameter (Listeria innocua; 24 h): 0.2 mm | growth diameter (Listeria innocua; 48 h): 0.3 mm
